The record followed here is ChEMBL document CHEMBL2396557, “Functional consequences of retro-inverso isomerization of a miniature protein inhibitor of the p53-MDM2 interaction” (Bioorg Med Chem, 2013).

Active and inactive are the calls of the source. The rule behind the calls is not given here.

The target of assay [1] is T1, E3 ubiquitin-protein ligase Mdm2 (Homo sapiens, UniProt Q00987). As to the kind of experiment: Binding affinity to MDM2 (25 to 109 amino acids) (unknown origin) at 100 uM after 30 mins by surface plasmon resosnance analysis.
Target sequence in this assay (Q00987 whole entry, looked up, the tested form may be a part): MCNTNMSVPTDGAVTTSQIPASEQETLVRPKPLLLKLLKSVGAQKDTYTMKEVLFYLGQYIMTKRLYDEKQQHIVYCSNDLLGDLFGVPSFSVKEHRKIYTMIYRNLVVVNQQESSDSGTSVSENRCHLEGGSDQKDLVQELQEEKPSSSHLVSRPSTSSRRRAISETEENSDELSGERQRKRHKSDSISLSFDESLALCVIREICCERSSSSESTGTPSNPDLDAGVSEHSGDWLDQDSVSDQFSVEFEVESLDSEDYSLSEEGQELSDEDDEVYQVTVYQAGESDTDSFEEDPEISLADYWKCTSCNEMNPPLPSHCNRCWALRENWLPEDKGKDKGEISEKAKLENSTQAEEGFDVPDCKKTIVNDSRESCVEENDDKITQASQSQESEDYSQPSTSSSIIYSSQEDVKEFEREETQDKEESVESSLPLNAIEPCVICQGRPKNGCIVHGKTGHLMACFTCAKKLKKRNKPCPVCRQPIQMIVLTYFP
Assay [2] deals with T1, E3 ubiquitin-protein ligase Mdm2. Description: Binding affinity to MDM2 (25 to 109 amino acids) (unknown origin) after 30 mins by surface plasmon resosnance analysis.
Target sequence in this assay (Q00987 whole entry, the tested form may be a part): as the sequence (Q00987 whole entry, looked up, the tested form may be a part) above

For `CC(C)C[C@@H]1NC(=O)[C@@H]2CSSC[C@@H](C(=O)O)NC(=O)[C@H](CC(N)=O)NC(=O)[C@H](CSSC[C@H](NC(=O)[C@H](CC(C)C)NC(=O)[C@H](CCC(N)=O)NC(=O)[C@@H](N)Cc3cnc[nH]3)C(=O)N[C@@H](CCCNC(=N)N)C(=O)N[C@@H](Cc3c[nH]c4ccccc34)C(=O)N[C@@H](Cc3ccc(O)cc3)C(=O)N2)NC(=O)[C@H](CCCCN)NC(=O)[C@H](C)NC(=O)[C@@H]2CCCN2C(=O)[C@H](CCC(=O)O)NC(=O)[C@H]([C@@H](C)O)NC(=O)[C@H](Cc2ccccc2)NC1=O`, the result in assay [1] was inactive.

In assay [2], `CC(C)C[C@@H](NC(=O)[C@@H](CCC(N)=O)NC(=O)[C@H](N)Cc1cnc[nH]1)C(=O)N[C@@H]1CSSC[C@H]2NC(=O)[C@@H](CCCCN)NC(=O)[C@@H](C)NC(=O)[C@H]3CCCN3C(=O)[C@@H](CCC(=O)O)NC(=O)[C@@H]([C@H](C)O)NC(=O)[C@@H](Cc3ccccc3)NC(=O)[C@@H](CC(C)C)NC(=O)[C@@H](CSSC[C@H](C(=O)O)NC(=O)[C@@H](CC(N)=O)NC2=O)NC(=O)[C@@H](Cc2ccc(O)cc2)NC(=O)[C@@H](Cc2c[nH]c3ccccc23)NC(=O)[C@@H](CCCNC(=N)N)NC1=O` registered a Kd of 18.1 µM.
